Columns and labels:
[1] = system: human breast cancer cells MDA-MB-231; assay: Proliferation of human breast cancer cells; type: cell-based; conditions: same concentration as in mammospheres (0 to 60 μM), FIG. 10A
Procedure: (§1) The purified derivatives were treated to human beast cancer cells and human beast cancer-derived cancer stem cells and then the effects thereof were confirmed.
More specifically, first, human breast cancer cells MDA-MB-231 (ATCC) were incubated at a density of 1×10^6 cells in a 10 cm culture dish with a DMEM medium added with 10% fetal bovine serum (FBS, Hyclone), 100 U/ml penicillin, and 100 μg/ml of streptomycin (carbon dioxide 5%, 37° C.).

[2] = system: mammospheres of the human beast cancer-derived cancer stem cells; assay: Proliferation of mammospheres of breast cancer-derived cancer stem cells; type: cell-based; conditions: treated at the concentration of 0 to 60 μM; FIG. 10A/10B
Procedure: as §1
The human breast cancer cells MDA-MB-231 were incubated at a density of 0.5 to 1×10^4 cells in a ultra-low attachment 6-well plate containing 2 ml of a Complete MammoCult™ medium (StemCell Technologies, Canada) added with 4 μg/ml of heparin, 0.48 μg/ml of hydrocortisone, 100 U/ml of penicillin, and 100 μg/ml of streptomycin (carbon dioxide 5%, 37° C.) to form mammospheres of the human beast cancer-derived cancer stem cells.

[3] = biological target: T1, Protein having amino acid sequence of SEQ ID NO: 2 (protein K9V; enzyme for producing tri-hydroxy or tetra-hydroxy derivative of polyunsaturated fatty acids) (Phormidium nigroviride, UniProt K9VMV7); assay: Reaction rate (Km, Kcat) under optimal conditions, protein of SEQ ID NO: 2; type: biochemical; conditions: pH 7.0, 30° C.
T1 construct: Ni-NTA purified
T1 sequence (K9VMV7 1-571): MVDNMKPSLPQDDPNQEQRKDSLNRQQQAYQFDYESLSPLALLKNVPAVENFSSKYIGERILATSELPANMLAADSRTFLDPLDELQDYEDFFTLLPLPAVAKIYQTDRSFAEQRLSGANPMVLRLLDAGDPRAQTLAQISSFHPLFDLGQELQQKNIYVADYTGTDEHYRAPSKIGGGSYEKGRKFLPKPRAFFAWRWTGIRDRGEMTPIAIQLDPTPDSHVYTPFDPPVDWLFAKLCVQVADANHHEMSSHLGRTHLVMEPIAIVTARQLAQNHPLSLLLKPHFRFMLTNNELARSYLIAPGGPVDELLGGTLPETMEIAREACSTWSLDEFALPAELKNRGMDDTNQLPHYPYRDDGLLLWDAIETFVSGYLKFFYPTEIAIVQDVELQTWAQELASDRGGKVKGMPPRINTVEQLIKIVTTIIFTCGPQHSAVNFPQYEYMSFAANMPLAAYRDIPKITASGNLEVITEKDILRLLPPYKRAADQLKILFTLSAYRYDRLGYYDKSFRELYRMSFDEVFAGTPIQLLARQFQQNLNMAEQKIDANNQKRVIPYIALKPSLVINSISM
Description: Under optimal conditions confirmed in [4-1] and [4-2] above, Km and Kcat values of the protein having the amino acid sequence of SEQ ID NO: 1 and the protein having the amino acid sequence of SEQ ID NO: 2 were examined.

[4] = biological target: Protein having amino acid sequence of SEQ ID NO: 1 (protein K9V_A296G; enzyme for producing di-hydroxy derivative of polyunsaturated fatty acids) (Phormidium nigroviride, UniProt K9VMV7, A296G); conditions: pH 8.0, 20° C.
Procedure: At this time, 50 mM of a sodium phosphate buffer in the case of pH 7.0, 50 mM of a Tris-HCl buffer in the case of pH 8.0, and 50 mM of a sodium borate buffer in the case of pH 9.0 to pH 11.0 were used, respectively.

[5] = Effect of pH on enzyme activity (13S-hydroxy-octadecadienoic acid formed); type: biochemical; conditions: 10 KU/ml protein, 100 μM linoleic acid, 30 minutes
Procedure: (§2) In the same manner as in Example [3-1], the concentration of 13S-hydroxy-octadecadienoic acid in the reaction product was measured, and relative values thereof were compared with each other.

[6] = Effect of temperature on enzyme activity (13S-hydroxy-octadecadienoic acid formed); type: biochemical; conditions: 100 μM linoleic acid, pH 7, 20° C. to 50° C., 30 minutes
Procedure: as §2

CCC(O)/C=C/C=C/C=C/C(O)C/C=C/C/C=C/C/C=C/CCC(=O)O (stereo not shown) [di-hydroxy derivative]
proliferation of the breast cancer cells [1]: no effect
proliferation of the mammospheres of the beast cancer-derived cancer stem cells [2]: inhibited

CCCCC/C=C\C/C=C\CCCCCCCC(=O)O [linoleic acid]
Kcat [3]: 0.0067 ± 0.00033 s⁻¹
Km [3]: 79.4 ± 0.8 µM
Kcat [4]: 0.392 ± 0.0167 s⁻¹
Km [4]: 46.8 ± 1 µM

B1: Protein having amino acid sequence of SEQ ID NO: 1: enzyme for producing a di-hydroxy derivative of polyunsaturated fatty acids, about 65 KDa, expressed in E. coli (protein)
chain: MVDNMKPSLPQDDPNQEQRKDSLNRQQQAYQFDYESLSPLALLKNVPAVENFSSKYIGERILATSELPANMLAADSRTFLDPLDELQDYEDFFTLLPLPAVAKIYQTDRSFAEQRLSGANPMVLRLLDAGDPRAQTLAQISSFHPLFDLGQELQQKNIYVADYTGTDEHYRAPSKIGGGSYEKGRKFLPKPRAFFAWRWTGIRDRGEMTPIAIQLDPTPDSHVYTPFDPPVDWLFAKLCVQVADANHHEMSSHLGRTHLVMEPIAIVTARQLAQNHPLSLLLKPHFRFMLTNNELGRSYLIAPGGPVDELLGGTLPETMEIAREACSTWSLDEFALPAELKNRGMDDTNQLPHYPYRDDGLLLWDAIETFVSGYLKFFYPTEIAIVQDVELQTWAQELASDRGGKVKGMPPRINTVEQLIKIVTTIIFTCGPQHSAVNFPQYEYMSFAANMPLAAYRDIPKITASGNLEVITEKDILRLLPPYKRAADQLKILFTLSAYRYDRLGYYDKSFRELYRMSFDEVFAGTPIQLLARQFQQNLNMAEQKIDANNQKRVIPYIALKPSLVINSISM
modifications: K9V_A296G
notes: enzyme for producing a di-hydroxy derivative of polyunsaturated fatty acids, about 65 KDa, expressed in E. coli
pH of better (optimal) enzyme activity ([5]; pH 7 to pH 11, 25° C., FIG. 8A): ~8.0
temperature of better (optimal) enzyme activity ([6]; 50 KU/ml protein, FIG. 9A): ~20 °C

B2: Protein having amino acid sequence of SEQ ID NO: 2: enzyme for producing a tri-hydroxy or tetra-hydroxy derivative of polyunsaturated fatty acids, about 65 KDa, expressed in E. coli (protein)
chain: MVDNMKPSLPQDDPNQEQRKDSLNRQQQAYQFDYESLSPLALLKNVPAVENFSSKYIGERILATSELPANMLAADSRTFLDPLDELQDYEDFFTLLPLPAVAKIYQTDRSFAEQRLSGANPMVLRLLDAGDPRAQTLAQISSFHPLFDLGQELQQKNIYVADYTGTDEHYRAPSKIGGGSYEKGRKFLPKPRAFFAWRWTGIRDRGEMTPIAIQLDPTPDSHVYTPFDPPVDWLFAKLCVQVADANHHEMSSHLGRTHLVMEPIAIVTARQLAQNHPLSLLLKPHFRFMLTNNELARSYLIAPGGPVDELLGGTLPETMEIAREACSTWSLDEFALPAELKNRGMDDTNQLPHYPYRDDGLLLWDAIETFVSGYLKFFYPTEIAIVQDVELQTWAQELASDRGGKVKGMPPRINTVEQLIKIVTTIIFTCGPQHSAVNFPQYEYMSFAANMPLAAYRDIPKITASGNLEVITEKDILRLLPPYKRAADQLKILFTLSAYRYDRLGYYDKSFRELYRMSFDEVFAGTPIQLLARQFQQNLNMAEQKIDANNQKRVIPYIALKPSLVINSISM
modifications: enzyme (K9V)
notes: enzyme for producing a tri-hydroxy or tetra-hydroxy derivative of polyunsaturated fatty acids, about 65 KDa, expressed in E. coli
pH of better (optimal) enzyme activity ([5]; pH 6 to pH 11, 25° C., FIG. 8B): ~8.0
temperature of better (optimal) enzyme activity ([6]; 10 KU/ml protein, FIG. 9B): ~30 °C
